Measurements taken from paper PMC9628989 (Antiviral Research, 2007).
Where two headings read alike, the source gives them in different places.

How the values were obtained:
[1] = in vivo; cited from earlier work
[2] = in vitro; details: CD-1, mouse, s9, pH 7.4, Half-life
[3] = mouse, in vivo, po; cited from earlier work
[4] = in vitro; details: both, CD-1, mouse, hepatocytes
[5] = human, s9, 0 h, pH 7.4
[6] = CD-1, mouse, s9, 0 h, pH 7.4
[7] = in vivo; cited from earlier work; remark: listed apart in the source
[8] = in vitro; details: both, human, hepatocytes
[9] = in vitro; details: cynomolgus monkey, s9, pH 7.4, Half-life
[10] = cynomolgus monkey, s9, 0 h, pH 7.4

SMILES	oral bioavailability [1]	half-life [2] [h]	orally administered drug accounted for in plasma [3]	half-life [4] [h]	Percentage of CMX001 remaining at incubation time point 0 min [5] [%]	Percentage of CMX001 remaining at incubation time point 0 min [6] [%]	nephrotoxicity [7]	half-life [8] [h]	half-life [9] [min]	Percentage of CMX001 remaining at incubation time point 0 min [10] [%]
Nc1ccn(C[C@@H](CO)OCP(=O)(O)O)c(=O)n1 [CDV, [S]-1-[3-hydroxy-2-phosphonylmethoxypropyl]cytosine]	poor oral bioavailability	–	–	–	–	–	–	–	–	–
CCCCCCCCCCCCCCCCOCCCOP(=O)(O)CO[C@H](CO)Cn1ccc(N)nc1=O [CMX001, hexadecyloxypropyl ester of CDV]	–	> 1.67	approximately 88%	3.55	100	100	not been shown to cause nephrotoxicity	3.8	8	100
